The supplement of paper PMC8882468
Values joined by “and” are separate entries in the source; they are usually repeats but may differ in a detail not shown here. Identical values can stand only once.

Columns and labels:
Test in all cases: CTG-3D luminescence at 96 h relative to day-0 seeding control (ratio to day 0); higher = more growth / less cytotoxicity; PDxO 3D drug screen (set 2), 96 h, CTG-3D normalised to day-0 seeding control.
HCI-008 = system: HCI-008 (organoid from a HER2-enriched breast cancer xenograft)
HCI-012 = system: HCI-012 (organoid from a breast cancer xenograft)
HCI-023 = system: HCI-023 (organoid from a triple-negative breast cancer xenograft)
MDA-MB-231 = system: MDA-MB-231
HCI-019 = system: HCI-019 (organoid from a triple-negative breast cancer xenograft)

CS(=O)(=O)CCNCc1ccc(-c2ccc3ncnc(Nc4ccc(OCc5cccc(F)c5)c(Cl)c4)c3c2)o1 [lapatinib]
CTG-3D luminescence at 96 h
Details | 12.5 pM | 0.00025 µM | 0.005 µM | 0.1 µM | 1 µM | 10 µM | 100 µM | 625 fM
HCI-008, days in culture: 325 | 1.68 | 1.81 | 1.73 | 3.2 | 2.32 | 0.898 | 0.0242 | 1.5
HCI-008, days in culture: 340 | 1.22 | 2.1 | 1.96 | 1.35 | 2.47 | – | 0.0374 | 1.39
HCI-008, days in culture: 354 | 1.62 | 1.04 | 2.27 | 1.42 | 1.52 | 0.935 | 0.00653 | 1.13
HCI-008, days in culture: 382 | 1.61 | 1.47 | 1.81 | 1.52 | 1.25 | 0.425 | 0.00105 | 1.22
HCI-012, days in culture: 214 | 2.69 | 3.04 | 1.24 | 2.07 | 1.18 | 0.474 | 0.0116 | 2.99
HCI-012, days in culture: 243 | 2.16 | 2.36 | 2.03 | 2.3 | 1.73 | 1.17 | 0.00575 | 2.33
HCI-012, days in culture: 256 | 1.96 | 2.5 | 2.14 | 2.69 | 1.63 | 1.22 | 0.0102 | 2.35
HCI-012, days in culture: 284 | 1.64 | 2.45 | 1.64 | 2.11 | 1.41 | 0.504 | -0.00107 | 3.12
HCI-019, days in culture: 173 | 1.7 | 2.33 | 1.14 | 2.61 | 1.9 | 0.415 | 0.078 | 1.93
HCI-019, days in culture: 194 | 1.47 | 2.84 | 1.45 | 2.84 | 1.7 | 0.531 | 0.0607 | 2.78
HCI-019, days in culture: 215 | 1.96 | 2.03 | 1.85 | 1.67 | 1.66 | 0.323 | 0.00321 | 2.07
HCI-023, days in culture: 223 | 1.82 | 2.13 | 1.85 | 2.09 | 1.46 | 0.716 | 0.00541 | 1.72
HCI-023, days in culture: 238 | 1.38 | 1.57 | 1.41 | 1.6 | 1.91 | 0.911 | 0.00517 | 1.57
HCI-023, days in culture: 252 | 2.21 | 2.11 | 1.77 | 1.94 | 1.86 | 1.14 | 0.00206 | 1.9

MDA-MB-231
Details | CTG-3D luminescence at 96 h
12.5 pM | 5.64 and 5.22
0.00025 µM | 5.66 and 5.01
0.005 µM | 5.76 and 5.34
0.1 µM | 5.51 and 5.1
1 µM | 5.57 and 4.9
100 µM | 0.00446 and 0.0132
625 fM | 5.54 and 5.06

O=C(c1cc(Cc2n[nH]c(=O)c3ccccc23)ccc1F)N1CCN(C(=O)C2CC2)CC1 [olaparib]
CTG-3D luminescence at 96 h
Details | 12.5 pM | 0.00025 µM | 0.005 µM | 0.1 µM | 1 µM | 10 µM | 100 µM | 625 fM
HCI-008, days in culture: 325 | 1.39 | 1.88 | 1.46 | 3.33 | 2.71 | 1.99 | 0.484 | 1.65
HCI-008, days in culture: 340 | 1.45 | 2.1 | 1.84 | 1.46 | 1.67 | – | 0.958 | 1.34
HCI-008, days in culture: 354 | 1.36 | 1 | 1.35 | 1.2 | 1.22 | 1.33 | 0.836 | 1.44
HCI-008, days in culture: 382 | 1.49 | 1.46 | 1.23 | 2 | 0.89 | 0.955 | 0.204 | 1.8
HCI-012, days in culture: 214 | 2.61 | 3.14 | 2.09 | 1.89 | 1.68 | 0.943 | 0.704 | 2.64
HCI-012, days in culture: 243 | 1.73 | 2.04 | 1.86 | 2.25 | 1.49 | 1.74 | 1.2 | 2.06
HCI-012, days in culture: 256 | 2.25 | 1.86 | 2.13 | 3.12 | 2.12 | 1.26 | 1.08 | 2.1
HCI-012, days in culture: 284 | 1.75 | 1.95 | 1.42 | 2.17 | 1.42 | 1.42 | 0.15 | 3
HCI-019, days in culture: 173 | 2.78 | 1.9 | 2.2 | 2.31 | 0.982 | 0.711 | 1.32 | 1.96
HCI-019, days in culture: 194 | 0.984 | 1.95 | 2.68 | 1.65 | 1.48 | 0.946 | 0.789 | 2.41
HCI-019, days in culture: 215 | 2 | 2.06 | 1.04 | 1.59 | 1.06 | 0.36 | 0.254 | 1.33
HCI-023, days in culture: 223 | 1.7 | 2.3 | 1.79 | 1.65 | 1.36 | 1.31 | 0.879 | 1.75
HCI-023, days in culture: 238 | 1.45 | 1.31 | 1.45 | 1.53 | 1.9 | 1.41 | 0.856 | 1.72
HCI-023, days in culture: 252 | 2.12 | 1.81 | 1.55 | 2 | 1.78 | 1.86 | 1.59 | 2.3

MDA-MB-231
Details | CTG-3D luminescence at 96 h
12.5 pM | 5.57 and 5.09
0.00025 µM | 5.62 and 5.21
0.005 µM | 5.57 and 5.41
0.1 µM | 5.38 and 5.09
1 µM | 5.15 and 5.11
10 µM | 4.31 and 4.38
100 µM | 3.27 and 2.33
625 fM | 5.41 and 5.09
